{"source": "patent US20130236964A1", "about": "“METHODS, NUCLEIC ACID CONSTRUCTS AND CELLS FOR TREATING NEURODEGENERATIVE DISORDERS” (RAMOT AT TEL-AVIV UNIVERSITY LTD., priority 2002, published 2013)", "key": {"[1]": {"system": "mBMSc", "test": "Differentiation of mouse BMSc into oligodendrocyte precursors (morphology, survival, A2B5 immunoassay)", "assay_type": "cell-based", "conditions": "for effect on cell-morphology (comparison of substances) / neuronal cell morphology: 24 hr incubation; for neuronal cell morphology: inducing substance alone", "method": "Mice B5/EGFP (male) were sacrificed by cervical dislocation and were prepared with 70% alcohol solution. […] The cell pellet was resuspended in 1 ml growth medium and diluted to 10 ml. The cells were plated in polystyrene plastic tissue cultures 75 cm^2 flask (Corning Incorporated, Corning, N.Y.) in the “proliferation medium” (see Example 1 hereinabove) for one week. The cells were then transferred to polylysin-coated slide-chambers (3200 cells/well), supplemented “proliferation medium” and incubated for 24 hours at 37° C. The growth medium was then replaced with “oligodendrocytes differentiation media” composed of DMEM supplemented with 2 mM glutamine, SPN, one or more of the following substances: bFGF (10 ng/ml), EGF (10-20 ng/ml), Interlukin-1b (20-40 ng/ml), dbcAMP (1-2 mM), retinoic acid (0.5 or 1 μM), neurotrophin-3 (50 or 100 ng/ml), human platelet derived growth factor (PDGF-AA; 5-20 ng/ml), N2 supplement, triiodothyronien (T3; 40 ng/ml) and ciliary neurotrophic factor (20 ng/ml; CNTF).\nThe cultures were incubated at 37° C. for 1, 2 or 6 days (replacing growth media with fresh media every two days) then fixed in 4% PFA. Cells were blocked in 10% FCS solution then incubated with 5 ug/ml anti-A2B5 monoclonal antibody (1:200; R&D systems; 1:200) overnight at 4° C. Cells were then washed twice in PBS for 10 min and incubated with goat-anti-mouse Cy-3 second antibody (Jackson laboratories; 1:500) at room temperature for 20 min. The incidence of cells stained positive for A2B5 (an early marker of oligodendrocyte progenitors) was determined by using a fluorescent microscope equipped with Image ProPlus cell-counting program (Cybernetics)."}, "[2]": {"system": "hBMSc", "test": "HPLC analysis of dopamine, DOPA and DOPAC in supernatant of differentiating hBMSc", "assay_type": "cell-based, human", "conditions": "medium supplemented with 56 mM KCl, 10 minutes incubation", "method": "hBMSc were cultured as described in Table 6 below. [table] Samples were stabilized by adding 88 μl of 85% orthophosphoric acid and 4.4 mg of metabisulfite to ml sample. Dopamine was extracted by aluminium adsorption (Alumina, Bioanalytical Systems Inc.). Separation of injected samples (50 μl) was effected by isocratic elution on a HPLC-electron chemical detection (HPLC-ECD) system with a reverse-phase C18 column (125×4.6 mm dimension, Hichrom, Inc.) in a monochloroacetate buffer mobile phase. The flow rate was set at 1.2 ml per min, and the oxidative potential of the analytical cell was set at +650 mV. Results were validated by co-elution with dopamine standards under varying buffer conditions and detector settings."}, "[3]": {"system": "Human BMSCs", "test": "Fatty acid composition of BMSC after fatty acid supplementation of media (lipid extraction, gas chromatography)", "assay_type": "cell-based", "method": "DHA and AA were diluted in DMEM with 1% horse serum. α-tocopherol was dissolved in ethanol (absolute) before supplementation. FA and α-tocopherol were stored at 4° C. in darkness to prevent their oxidation. Following forty-eight hours, the “additional differentiation medium” was changed to “differentiation medium”, containing DMEM supplemented with SPN, 2 mM L-glutamine, 200 μM butylated hydroxyanisole (BHA), 1 mM dibutyryl cyclic AMP (dbcAMP), 0.5 mM isobutylmethylxanthine (IBMX), 1 μM retinoic acid (RA) and N2 supplement with increasing amounts of DHA (Sigma) and AA (Sigma) (0, 30, 40, 50 and 60 μM). α-tocopherol was added at a concentration of 40 μM to all samples.\nFollowing removal of medium from the culture dish, adherent cells were washed twice with cold PBS and dried by gentle aspiration with a Pasteur pipette. To each culture dish, 3 ml of a hexane:isopropanol (3:2 vol:vol) (HIP) solvent mixture containing 5 mg/dl butylated hydroxytoluene (BHT) was added. The dishes were gently shaken at room temperature for 10 minutes and the supernates were transferred to methylation tubes. The procedure was repeated with 1.5 ml HIP and the lipid extracts were added to the same tubes. For quantitative experiments which included simultaneous protein determination, lipid extraction was performed with HIP which contained a known amount of heneicosanoic acid (21:0) so as to obtain an internal standard. In addition, for these experiments, known volumes of concentrated cell suspensions were directly extracted with HIP and the protein content was determined from an equal volume of cell concentrates.\nThe lipid extracts were evaporated to dryness under a stream of nitrogen. […] The tubes were capped under N2, vortexed and heated at 100° C. for 1 hour. The resulting fatty acid methyl esters (FAME) were extracted into hexane, after acidification of the mixture with 3 drops of 3N HCl, and kept under N2 at −20° C. until analysis.\nInjection was performed with a split/splitless injector kept at 220° C. at a split ratio of 1:30. Detector temperature was 250° C. The column temperature gradient was as follows: 70° C. for 2 min, increased at a rate of 20° C./min to 150° C. where it remained for 5 min, increased at 3° C./min to 210° C. and a final increase at 10° C./min to 230° C. at which it was kept for 3 min until the end of the run. FAME peaks were integrated and computed with the aid of the Varian Star Integrator computer package and were identified by comparison of their retention times with that of authentic standards. Injection of the samples was performed with the aid of a CTC-AS 200 autosampler.\nThe amount of individual fatty acids is presented as % weight of the total identified fatty acids and as μg FA/μg protein."}, "[4]": {"conditions": "+DHA (30 μM), Additional differentiation medium"}}}
{"molecule": "N[C@@H](Cc1cc(I)c(Oc2ccc(O)c(I)c2)c(I)c1)C(=O)O", "note": "[thyroid factor 3, triiodothyronien]", "values": [{"measurement": "effect on cell-morphology (comparison of substances)", "setting": "[1]", "value": "most pronounced effect on cell-morphology"}]}
{"molecule": "Interlukin-1b [IL-1b]", "values": [{"measurement": "neuronal cell morphology", "setting": "[1]", "value": "Neuronal cell morphology was observed"}]}
{"molecule": "[Cl-].[K+]", "note": "[KCl]", "values": [{"measurement": "effect on dopamine secretion", "setting": "[2]", "value": "further enhanced dopamine secretion"}]}
{"molecule": "IL-6: IL-6, named only in the result sentence (data not shown)", "values": [{"measurement": "effect on cell-morphology (comparison of substances)", "setting": "[1]", "value": "most pronounced effect on cell-morphology"}]}
{"molecule": "CCCC(=O)Nc1ncnc2c1ncn2[C@@H]1O[C@@H]2COP(=O)(O)O[C@H]2[C@H]1OC(=O)CCC", "note": "[dbcAMP, dibutyryl cyclic AMP]", "values": [{"measurement": "effect on cell-morphology (comparison of substances)", "setting": "[1]", "value": "most pronounced effect on cell-morphology"}, {"measurement": "neuronal cell morphology", "setting": "[1]", "value": "Neuronal cell morphology was observed"}]}
{"molecule": "Cc1c(C)c2c(c(C)c1O)CC[C@@](C)(CCC[C@H](C)CCC[C@H](C)CCCC(C)C)O2", "note": "[α-Tocopherol, α-tocopherol]", "values": [{"measurement": "effect on PUFA composition of the neuron-like cells", "setting": "[3]; 40 μM", "value": "did not affect the PUFA composition"}]}
{"molecule": "CCCCC/C=C\\C/C=C\\C/C=C\\C/C=C\\CCCC(=O)O", "note": "[AA, arachidonic acid]", "values": [{"measurement": "optimal concentration in the additional differentiation medium to obtain the best cellular FA profile", "setting": "[3]", "value": 40, "unit": "µM"}]}
{"molecule": "CC/C=C\\C/C=C\\C/C=C\\C/C=C\\C/C=C\\C/C=C\\CCC(=O)O", "note": "[DHA, docosahexaenoic acid]", "values": [{"measurement": "optimal concentration in the additional differentiation medium to obtain the best cellular FA profile", "setting": "[3]", "value": 40, "unit": "µM"}, {"measurement": "20:4 n-6 of BMSC", "setting": "[3]; [4]", "value": 8.15, "unit": "% weight"}, {"measurement": "22:6 n-3 of BMSC", "setting": "[3]; [4]", "value": 16.70, "unit": "% weight"}, {"measurement": "Sum MUFA of BMSC", "setting": "[3]; [4]", "value": 24.24, "unit": "% weight"}, {"measurement": "Sum PUFA of BMSC", "setting": "[3]; [4]", "value": 33.08, "unit": "% weight"}, {"measurement": "Sum Saturated fatty acids of BMSC", "setting": "[3]; [4]", "value": 42.69, "unit": "% weight"}, {"measurement": "20:4 n-6 of BMSC", "setting": "[3]; +DHA, Differentiation medium", "value": 5.40, "unit": "% weight"}, {"measurement": "22:6 n-3 of BMSC", "setting": "[3]; +DHA, Differentiation medium", "value": 13.01, "unit": "% weight"}, {"measurement": "Sum MUFA of BMSC", "setting": "[3]; +DHA, Differentiation medium", "value": 12.32, "unit": "% weight"}, {"measurement": "Sum PUFA of BMSC", "setting": "[3]; +DHA, Differentiation medium", "value": 25.71, "unit": "% weight"}, {"measurement": "Sum Saturated fatty acids of BMSC", "setting": "[3]; +DHA, Differentiation medium", "value": 61.79, "unit": "% weight"}]}
{"molecule": "neurotrophin-3 (protein, UniProt P20783 139-257, looked up, neurotrophin-3, inducing substance in oligodendrocytes differentiation media) Neurotrophin-3: YAEHKSHRGEYSVCDSESLWVTDKSSAIDIRGHQVTVLGEIKTGNSPVKQYFYETRCKEARPVKNGCRGIDDKHWNSQCKTSQTYVRALTSENNKLVGWRWIRIDTSCVCALSRKIGRT", "values": [{"measurement": "incidence of antibody-labeled A2B5 (comparison of substances)", "setting": "[1]", "value": "highest incidence"}, {"measurement": "effect on cell-morphology (comparison of substances)", "setting": "[1]", "value": "most pronounced effect on cell-morphology"}, {"measurement": "neuronal cell morphology", "setting": "[1]", "value": "Neuronal cell morphology was observed"}]}
